{"source": "paper PMC5903342", "about": "(Oxidative Medicine and Cellular Longevity, 2018)", "key": {"[1]": {"test": "DPPH free radical scavenging assay", "assay_type": "biochemical", "conditions": "absorbance at 517 nm", "method": "The free radical scavenging activity was measured by following microplate procedures as previously described. One hundred microliters of the sample dilutions with five concentration levels (varying from 0 to 2000 μM in DMSO) was added to two identical groups of wells in a 96-well microplate. The same volume of 0.1 mM DPPH-methanol solution was added to each well of one group (samples), and methanol ([…]) was added to the other group (blanks). The control was prepared by mixing the DPPH-methanol solution with the sample solvent or butylated hydroxytoluene (BHT). The solutions were mixed thoroughly, covered, and allowed to react in the dark at room temperature for 40 min. The absorbance was measured at 517 nm using a microplate reader (Quant, BioTek Instruments Inc.), and the scavenging activity was calculated from the absorbance values according to the following equation: […]. The antioxidant properties of the samples were expressed as half the maximal effective concentrations (EC50) obtained by interpolation from the linear regression analysis. BHT was used as the positive control."}, "[2]": {"test_system": "Salmonella enterica serovar typhimurium TA104", "test": "Antimutagenicity assay (Salmonella/microsome), strain TA104", "assay_type": "cell-based", "conditions": "atorvastatin 0 μM", "description": "(§1) Salmonella enterica serovar typhimurium (S. typhimurium) strains TA100, TA1535, TA104, and TA102 from the authors' laboratory stock were used as described by Maron and Ames in the antimutagenicity assay.\n(§2) We carried out the coexposure protocol of the antimutagenicity assay to investigate the potential of the compound to protect against alkylation-mediated genetic mutation in S. typhimurium TA100, TA102, TA104, and TA1535 strains according to Ajith and Soja. The test proceeded both in the absence and presence of a metabolic activation system (4% S9 mix, Aroclor preinduced, from MOLTOX Inc., USA). DMSO 1% served as the negative control. […] The mixtures were incubated in a shaker at 37°C (preincubation) under light protection. After a total of 60 min of cotreatment, the mixtures were added to and mixed with 2 mL top agar containing 0.05 mmol/L L-histidine and D-biotin for the S. typhimurium strains. Each of these was then spread on a minimal glucose agar (1.5% agar, Vogel-Bonner medium E, containing 2% glucose) plate. After the top agar solidified, the plates were incubated at 37°C for 60–72 h. Each tester strain was assayed in triplicate and repeated at least twice, and the number of revertant colonies was counted for each tester strain and treatment group. The counts of revertant colonies were obtained to build a dose-response curve and calculate the percentage of reduction."}, "[3]": {"test_system": "Salmonella enterica serovar typhimurium TA102", "test": "Antimutagenicity assay (Salmonella/microsome), strain TA102", "assay_type": "cell-based", "conditions": "atorvastatin 0 μM", "description": "as §1, §2"}, "[4]": {"test_system": "Salmonella enterica serovar typhimurium TA1535", "test": "Antimutagenicity assay (Salmonella/microsome), strain TA1535", "assay_type": "cell-based", "conditions": "atorvastatin 0 μM", "description": "as §1, §2"}, "[5]": {"test_system": "Salmonella enterica serovar typhimurium TA100", "test": "Antimutagenicity assay (Salmonella/microsome), strain TA100 (co-, pre- and posttreatment)", "assay_type": "cell-based", "conditions": "atorvastatin 0 μM"}, "[6]": {"test": "in vitro", "assay_type": "cell-based", "conditions": "human, HepG2, 24 h of exposure", "quoted_text": "(§3) Human hepatocellular carcinoma cells (HepG2) obtained from the American Type Culture Collection (Manassas, VA) were cultured in a minimum Eagle's medium (MEM, Gibco®, USA) containing 10% fetal bovine serum (FBS) plus 100 μg/mL streptomycin and 100 μg/mL penicillin at 37°C in a 5% CO2 atmosphere. Logarithmic-phase cells were used in all the experiments [9].\nFresh HepG2 cells were seeded at a density of 1 × 10^5/well."}, "[7]": {"test_system": "HepG2 cells", "test": "Flow cytometry cell cycle analysis", "assay_type": "cell-based, Human", "conditions": "24 h", "method": "The cells (1 × 10^5) were washed in PBS solution and centrifuged at 400 ×g for 5 min, and after, the cells were suspended in DNA staining solution (0.3% Triton X-100 and 50 μg/mL propidium iodide (PI) in a 43 mM citrate buffer), as previously described. After 45 minutes of treatment with 50 μg/mL ribonuclease A (Sigma, EUA), the PI fluorescence was determined (10,000 events per sample) in a Gallios flow cytometer (Beckman Coulter, USA). Data were analyzed by the Summit v4.3 software. The experiments were done at least three times, and statistical analysis was performed by one-way ANOVA followed by a Tukey's post hoc test."}, "[8]": {"test_system": "HepG2 cells", "quoted_text": "as §3\nThe HepG2 cells were seeded at a density of 1 × 10^5/mL into 24-well plates (1 mL/well). […] DMSO 1% was used as the negative control. After exposure to the compounds, the cells were incubated for 24 h more and the cytogenetic studies were carried out in triplicate and N = 3 [14]. In order to determine the mitotic index and the number of cells with micronuclei, the medium was replaced by a cold methanol-glacial acetic acid (3 : 1) fixative for 30 min and the cells were then rinsed with distilled water for 2 min and air dried. […] To determine the mitotic index and the number of cells with micronuclei, 2000 cells per well (6000 cells per concentration) were analyzed using fluorescence microscopy (Reichert Univar) with an excitation wavelength of 350 nm. […] Statistical differences between the groups were analyzed by a one-way ANOVA (p < 0.01) and Tukey's post hoc test."}, "[9]": {"test_system": "Salmonella enterica serovar typhimurium TA98 and TA100 strains", "conditions": "sodium azide or 4-nitro-o-phenylenediamine, TA98 and TA100, absence of metabolic activation; cited from earlier work"}, "[10]": {"test_system": "CHO-K1 cells", "set-up": "method as in PMID 15988137", "conditions": "statins from 10 μM to 100 μM; cited from earlier work"}, "[11]": {"conditions": "TA100, cotreatment protocol, +S9, CPA (150 μM) only"}, "[12]": {"conditions": "TA100, posttreatment protocol, +S9, CPA (150 μM) only"}, "[13]": {"conditions": "TA100, pretreatment protocol, +S9, CPA (150 μM) only"}, "[14]": {"conditions": "TA100, cotreatment protocol, −S9, MMS (100 μM) only"}, "[15]": {"conditions": "TA100, posttreatment protocol, −S9, MMS (100 μM) only"}, "[16]": {"conditions": "TA100, pretreatment protocol, −S9, MMS (100 μM) only"}}, "note": "Like-named read-outs stand apart in the source and are kept apart here."}
{"molecule": "Cc1cc(C(C)(C)C)c(O)c(C(C)(C)C)c1", "note": "[BHT, butylated hydroxytoluene]", "values": [{"measurement": "EC50", "setting": "[1]", "result": "83 ± 2", "unit": "µM"}]}
{"molecule": "O=P1(N(CCCl)CCCl)NCCCO1", "note": "(stereo not drawn) [CPA, cyclophosphamide]", "values": [{"measurement": "His+ (revertant colonies)", "setting": "[2]; TA104, +S9, CPA (150 μM) only", "result": "1092 ± 85"}, {"measurement": "MI (mutagenicity index)", "setting": "[2]; TA104, +S9, CPA (150 μM) only", "result": 2.40}, {"measurement": "His+ (revertant colonies)", "setting": "[3]; TA102, +S9, CPA (150 μM) only", "result": "588 ± 85"}, {"measurement": "MI (mutagenicity index)", "setting": "[3]; TA102, +S9, CPA (150 μM) only", "result": 2.1}, {"measurement": "His+ (revertant colonies)", "setting": "[4]; TA1535, +S9, CPA (150 μM) only", "result": "56 ± 6"}, {"measurement": "MI (mutagenicity index)", "setting": "[4]; TA1535, +S9, CPA (150 μM) only", "result": 2.80}, {"measurement": "His+ (revertant colonies)", "setting": "[5]; [11]", "result": "239 ± 30"}, {"measurement": "MI (mutagenicity index)", "setting": "[5]; [11]", "result": 2.13}, {"measurement": "His+ (revertant colonies)", "setting": "[5]; [12]", "result": "278 ± 33"}, {"measurement": "MI (mutagenicity index)", "setting": "[5]; [12]", "result": 2.66}, {"measurement": "His+ (revertant colonies)", "setting": "[5]; [13]", "result": "244 ± 8"}, {"measurement": "MI (mutagenicity index)", "setting": "[5]; [13]", "result": 2.44}, {"measurement": "CC50 at 24 h", "setting": "[6]; read-out: LC50", "result": "98.7 ± 11.5", "unit": "µM"}, {"measurement": "sub-G1 percentage of cells", "setting": "[7]; CPA only (no AVA)", "result": 17, "unit": "%"}, {"measurement": "polyploid subpopulation", "setting": "[7]; exposure just to CPA", "result": 13, "unit": "%"}, {"measurement": "Micronucleus formation, fold in comparison to the negative control", "setting": "[8]; 60.0 μM CPA only, 6 h and 24 h", "result": "5-6 fold"}]}
{"molecule": "CC[C@H](C)C(=O)O[C@H]1C[C@@H](C)C=C2C=C[C@H](C)[C@H](CC[C@@H]3C[C@@H](O)CC(=O)O3)[C@H]21", "note": "[LOVA, lovastatin]", "values": [{"measurement": "Antimutagenic (chemopreventive) effect against direct mutagens", "setting": "[9]", "result": "able to exert chemopreventive effects"}]}
{"molecule": "COS(C)(=O)=O", "note": "[MMS, methyl methanesulfonate]", "values": [{"measurement": "His+ (revertant colonies)", "setting": "[2]; TA104, −S9, MMS (100 μM) only", "result": "897 ± 55"}, {"measurement": "MI (mutagenicity index)", "setting": "[2]; TA104, −S9, MMS (100 μM) only", "result": 2.24}, {"measurement": "His+ (revertant colonies)", "setting": "[3]; TA102, −S9, MMS (100 μM) only", "result": "578 ± 55"}, {"measurement": "MI (mutagenicity index)", "setting": "[3]; TA102, −S9, MMS (100 μM) only", "result": 2.31}, {"measurement": "His+ (revertant colonies)", "setting": "[4]; TA1535, −S9, MMS (100 μM) only", "result": "71 ± 5"}, {"measurement": "MI (mutagenicity index)", "setting": "[4]; TA1535, −S9, MMS (100 μM) only", "result": 2.84}, {"measurement": "His+ (revertant colonies)", "setting": "[5]; [14]", "result": "212 ± 11"}, {"measurement": "MI (mutagenicity index)", "setting": "[5]; [14]", "result": 2.14}, {"measurement": "His+ (revertant colonies)", "setting": "[5]; [15]", "result": "264 ± 31"}, {"measurement": "MI (mutagenicity index)", "setting": "[5]; [15]", "result": 2.09}, {"measurement": "His+ (revertant colonies)", "setting": "[5]; [16]", "result": "230 ± 23"}, {"measurement": "MI (mutagenicity index)", "setting": "[5]; [16]", "result": 2.26}, {"measurement": "CC50", "setting": "[6]; read-out: LC50 (the source's name)", "result": "18.7 ± 6.67", "unit": "µM"}, {"measurement": "polyploid subpopulation", "setting": "[7]; human, 20 μM", "result": 15, "unit": "%"}, {"measurement": "sub-G1 percentage of cells", "setting": "[7]; human, 20 μM", "result": 19, "unit": "%"}, {"measurement": "Micronucleus formation, fold in comparison to the negative control", "setting": "[8]; only MMS-exposed cells (10.0 μM MMS), 6 and 24 h", "result": "6-7 fold"}]}
{"molecule": "CC(C)n1c(/C=C/C(O)CC(O)CC(=O)O)c(-c2ccc(F)cc2)c2ccccc21", "note": "(stereo not drawn) [fluvastatin]", "values": [{"measurement": "Micronucleus formation after exposure to bleomycin", "setting": "[10]", "result": "reduced micronucleus formation"}]}
{"molecule": "CC[C@H](C)C(=O)O[C@H]1C[C@H](O)C=C2C=C[C@H](C)[C@H](CC[C@@H](O)C[C@@H](O)CC(=O)O)[C@H]21", "note": "[pravastatin]", "values": [{"measurement": "Micronucleus formation after exposure to bleomycin", "setting": "[10]", "result": "reduced micronucleus formation"}]}
